Experimental data: PubChem BioAssay (NCI)
Several values for one entry are separate records, joined by “and”; a condition that tells them apart may be missing. Identical values can stand only once.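 A five-concentration, 48-hour dose response in 96-well plates underlies each endpoint, interpolated linearly between surrounding concentrations. At the GI50, growth is halved. The concentration for full growth arrest is given as TGI.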

Columns and labels:
Experiment in all cases: DTP human tumour cell line panel, 48 h
MALME-3M melanoma = test system: MALME-3M melanoma
NCI/ADR-RES ovarian = test system: NCI/ADR-RES ovarian
A549 NSCLC = test system: A549 NSCLC
UO-31 renal = test system: UO-31 renal
NCI-H460 lung = test system: NCI-H460 lung
UACC-257 melanoma = test system: UACC-257 melanoma
786-0 renal = test system: 786-0 renal
EKVX NSCLC = test system: EKVX NSCLC
SK-OV-3 ovarian = test system: SK-OV-3 ovarian
HOP-92 NSCLC = test system: HOP-92 NSCLC

SMILES | GI50 (MALME-3M melanoma) | TGI (MALME-3M melanoma) | GI50 (NCI/ADR-RES ovarian) | TGI (NCI/ADR-RES ovarian) | GI50 (A549 NSCLC) | TGI (A549 NSCLC) | GI50 (UO-31 renal) | TGI (UO-31 renal) | GI50 (NCI-H460 lung) | TGI (NCI-H460 lung) [µM] | GI50 (UACC-257 melanoma) | TGI (UACC-257 melanoma) | GI50 (786-0 renal) | TGI (786-0 renal) | GI50 (EKVX NSCLC) | TGI (EKVX NSCLC) | GI50 (SK-OV-3 ovarian) | TGI (SK-OV-3 ovarian) | GI50 (HOP-92 NSCLC) [µM] | TGI (HOP-92 NSCLC) [µM]
COC(=O)c1c(-c2cccs2)oc(-c2cccs2)c1C(=O)OC | 25 µM | 64 µM | 31.6 µM | > 94.5 µM | 39.1 µM | > 100 µM | 19.3 µM | 60.1 µM | 33.1 µM | > 100 | 40.3 µM | > 95.3 µM | 18 µM | 49.8 µM | 56.8 µM | > 100 µM | > 100 µM | > 100 µM | 31.9 | > 100
COc1cccc2cc(N(C)c3nc(C)nc4c3CCC4)ccc12 | 12 µM | 27.9 µM | < 0.01 µM | 16.1 µM | < 0.01 µM | 14.2 µM | < 0.0104 µM | 18.1 µM | < 0.01 µM | 12.4 | 2.57 µM | 20.6 µM | < 0.01 µM | 14.4 µM | < 0.01 µM | 30.7 µM | < 0.01 µM |  | < 0.0169 | 1.48
COc1cc(C2C3=C(COC3=O)N(CCO)c3cc4c(cc32)OCCO4)cc(OC)c1OC (configuration not stated) | > 50 µM | > 50 µM | 6.75 µM | > 40.7 µM | 0.487 µM | > 50 µM | 1.82 µM | > 50 µM | 0.208 µM | 1.68 | 0.384 µM | > 50 µM | 0.369 µM | > 50 µM | 0.413 µM | > 50 µM | 0.224 µM | > 14.5 µM | 0.111 | > 50
COc1ccc(-c2cncn2-c2cc(OC)c(OC)c(OC)c2)cc1 | < 0.0163 µM |  | 0.0652 µM | 0.915 µM | 0.471 µM | > 63.8 µM | 0.0936 µM | 18.2 µM | 0.367 µM | > 84.6 | 6.73 µM | > 86.9 µM | 0.115 µM | 43.7 µM | 3.06 µM | > 100 µM | 0.256 µM | > 86.5 µM | 3.3 | > 61
COc1ccc(-c2cc3c(C)nc(N)nc3n(C3CCC(OCCO)CC3)c2=O)cn1 (configuration not stated) | 0.035 µM and 0.0195 µM | 0.263 µM and 0.134 µM | 0.141 µM and 0.139 µM | 2.06 µM and 1.65 µM | 0.123 µM and 0.109 µM | 0.959 µM and 0.489 µM | 0.0265 µM and 0.0169 µM | 0.378 µM and 0.492 µM | 0.0629 µM and 0.0475 µM | > 35.3 | 0.0586 µM and 0.0423 µM | 0.414 µM and 0.336 µM | 0.0694 µM and 0.0605 µM | 0.614 µM and 0.442 µM | 0.0971 µM and 0.0465 µM | 0.7 µM and 0.396 µM | 0.044 µM and 0.0814 µM | 0.291 µM and 0.527 µM | 0.0362 | 
Cc1ccc([N+](=O)[O-])c2c(NCCNC(=O)c3cc(C(=O)NCCNc4ccnc5c(C)ccc([N+](=O)[O-])c45)n(C)n3)ccnc12 |  | > 73.2 µM |  | > 100 µM |  | > 68.8 µM |  | > 100 µM |  | > 100 |  | > 100 µM |  | 98.2 µM |  | > 100 µM |  | > 100 µM |  | > 100
CC/C(Cc1ccccc1)=C(\c1ccc(OCCN2CCCC2)cc1)c1ccc(OC(=O)NCc2ccccc2)cc1 | 1.68 µM | 3.19 µM | 2.66 µM | 10.3 µM | 1.88 µM | 3.47 µM | 1.61 µM | 3 µM | 1.89 µM | 3.42 | 1.91 µM | 3.81 µM | 1.64 µM | 3 µM | 2.37 µM | 7.39 µM | 11.6 µM | 24.6 µM | 1.58 | 3.19
CS(=O)(=O)OCCCNCCCOS(C)(=O)=O |  | 4890 µM |  | 6040 µM |  | 4550 µM |  | 6430 µM |  | 2450 |  | 5310 µM |  | 6310 µM |  | 6030 µM |  | 7470 µM |  | 4400
COc1cc(/C=C/c2ccc(O)c(OC)c2)cc(OC)c1 |  | > 100 µM |  | > 100 µM |  | > 100 µM |  | 66.2 µM |  | 52.5 |  | 80.6 µM |  | > 100 µM |  | > 100 µM |  | 76.9 µM |  | 49.7
O=C(NCC(F)(F)F)Nc1cccc(-c2cnc3cc(-c4ccc(F)cc4)ccn23)c1 | 0.541 µM | 46.2 µM | 1.82 µM | > 68 µM | 0.947 µM | > 100 µM | 0.575 µM | 5.53 µM | 0.491 µM | > 100 | 14.2 µM | 65.5 µM | 2.26 µM | > 100 µM | 5.17 µM | > 100 µM | 1.96 µM | > 54.2 µM | 2.15 | > 100
O=C(O)/C(Cc1ccnc2ccccc12)=N\O |  | > 100 µM |  | > 100 µM |  | > 100 µM |  | > 100 µM |  | > 100 |  | > 100 µM |  | > 100 µM |  | > 100 µM |  | > 100 µM |  | > 100
C#Cc1cccc(Nc2nc(Cl)nc3cc(NC(=O)CCl)ccc23)c1 | 1 µM | 2.25 µM | 1.28 µM | 13.6 µM | 3.66 µM | 8.51 µM | 0.823 µM | 3.15 µM | 1.44 µM | 4.24 | 2.36 µM | 5.82 µM | 0.449 µM | 0.949 µM | 2.12 µM | 6.27 µM | 2.88 µM | 6.1 µM | 1.23 | 2.86
CCOC(=O)C(Cc1ccc(N(CCCl)CCCl)cc1)NC(=O)C(Cc1ccccc1)NC=O (configuration not stated) |  | 0.191 µM |  | 0.656 µM |  | 0.727 µM |  | 0.273 µM |  | 0.604 |  | 0.54 µM |  | 0.303 µM |  | 0.538 µM |  | 0.634 µM |  | 0.419
CN1Cc2ccccc2/C=C\c2ccccc21 |  | > 100 µM |  | > 100 µM |  | > 100 µM |  | > 100 µM |  | > 100 |  | > 100 µM |  | > 100 µM |  | 92.7 µM |  | > 100 µM |  | 98.7
NC(=O)c1ccc(Oc2nccc(-c3c(-c4ccc(F)cc4)ncn3C3CCNCC3)n2)cc1 | > 25 µM | > 25 µM | > 25 µM | > 25 µM | > 25 µM | > 25 µM | > 25 µM | > 25 µM | > 25 µM | > 25 | > 25 µM | > 25 µM | > 25 µM | > 25 µM | > 25 µM | > 25 µM | > 25 µM | > 25 µM | > 25 | > 25
